Broadly, the MIC is the lowest concentration that inhibits growth of the organism. In general, IC50 refers to the concentration needed to halve the response being measured.

This passage reports MIC and IC50 results from ChEMBL document CHEMBL5120827, “Metabolomics and Genomics Approach for the Discovery of Serrawettin W2 Lipopeptides from Serratia marcescens NP2” (J Nat Prod, 2022).

The test system of this test is Enterococcus faecium. Kind of test: Antibacterial activity against clinical isolate Enterococcus faecium assessed as reduction in microbial growth by broth microdilution. The test is classed as functional, organism-based. In general terms: Broth dilution looks for growth in wells or tubes with falling amounts of substance.
For `CCCCCCCCCC1CC(=O)N[C@@H](CC(C)C)C(=O)N[C@@H](CO)C(=O)N[C@@H]([C@@H](C)O)C(=O)N[C@@H](Cc2ccccc2)C(=O)N[C@@H](C(C)C)C(=O)O1` (stereo not given in full), the MIC was greater than 125 µg/mL.

`CCCCCC1CC(=O)N[C@H](CC(C)C)C(=O)N[C@@H](CO)C(=O)N[C@@H]([C@@H](C)O)C(=O)N[C@@H](Cc2ccccc2)C(=O)N[C@@H](CC(C)C)C(=O)O1` (stereo not given in full): the MIC was greater than 125 µg/mL.

Regarding `CCCCCC1CC(=O)N[C@H](CC(C)C)C(=O)N[C@@H](CO)C(=O)N[C@@H]([C@@H](C)O)C(=O)N[C@@H](Cc2ccccc2)C(=O)N[C@@H](C(C)C)C(=O)O1` (stereo not given in full), the MIC is greater than 125 µg/mL.

For `CCCCCCCC1CC(=O)N[C@H](CC(C)C)C(=O)N[C@@H](CO)C(=O)N[C@@H]([C@@H](C)O)C(=O)N[C@@H](Cc2ccccc2)C(=O)N[C@@H](CC(C)C)C(=O)O1` (stereo not given in full), the 50% inhibitory concentration (IC50) was found to be 8.4 µg/mL and the MIC amounted to 15.6 µg/mL.

Take `CCCCCC1CC(=O)N[C@H](CC(C)C)C(=O)N[C@@H](CO)C(=O)N[C@@H]([C@@H](C)O)C(=O)N[C@@H](Cc2ccccc2)C(=O)N[C@@H]([C@@H](C)CC)C(=O)O1` (stereo not given in full): the IC50 was determined as 53.1 µg/mL and the MIC turned out to be 62.5 µg/mL.

As for `CCCCCCCC1CC(=O)N[C@@H](CC(C)C)C(=O)N[C@@H](CO)C(=O)N[C@@H]([C@@H](C)O)C(=O)N[C@@H](Cc2ccccc2)C(=O)N[C@@H](C(C)C)C(=O)O1` (stereo not given in full), the MIC was greater than 125 µg/mL.

`CCCCCCCCCC1CC(=O)N[C@H](CC(C)C)C(=O)N[C@@H](CO)C(=O)N[C@@H]([C@@H](C)O)C(=O)N[C@@H](Cc2ccccc2)C(=O)N[C@@H]([C@@H](C)CC)C(=O)O1` (stereo not given in full): the MIC was greater than 125 µg/mL.

As for `CCCCCCCCCC1CC(=O)N[C@H](CC(C)C)C(=O)N[C@@H](CO)C(=O)N[C@@H]([C@@H](C)O)C(=O)N[C@@H](Cc2ccccc2)C(=O)N[C@@H](CC(C)C)C(=O)O1` (stereo not given in full), the minimal inhibitory concentration (MIC) is greater than 125 µg/mL.
